Test results reported in patent publication US4269717A, “Boiler additives for oxygen scavenging” (priority 1980, dated 1981).
Read-outs that look alike come from different tables or passages of the source.

Key:
[1] = assay type: physicochemical; conditions: for Final Hydrazine Level / Percent Hydrolysis: fed at 100 ppm, pH 8.0, 600 p.s.i.
From the text: High temperature hydrolysis studies were next carried out again using reagent grade carbohydrazide containing approximately 2% hydrazine as an impurity. The apparatus used in this work was the once-through experimental apparatus for simulating boiler water transport referred to in Example 2, with feedwater pH set at 8.0 and system pressure at 600 p.s.i.
^1 Carbohydrazide was fed at 100 ppm; complete hydrolysis of the
carbohydrazide would theoretically yield 71.1 ppm N2 H4.

[2] = Metal passivation in experimental firerod boiler (Table IV)
From the text: Metal passivation studies were undertaken using an experimental firerod boiler under the following test conditions:
10 boiler water concentrations
40 ppm M alkalinity (as CaCO3)
A blank containing no oxygen scavenger was followed by test runs with hydrazine, carbohydrazide, and sodium sulfite.
*Tubes ranked by appearance of metal surface.

[3] = Description: A second more extensive group of potential oxygen scavengers were compared, again using a small laboratory boiler and oxygen saturated feed water containing sodium hydroxide. […] The hydrazine salts among this group are no less toxic than hydrazine and therefore were eliminated from further study. […] In addition, the carbohydrazide was preferred because it is a solid at room temperature and could therefore be used in dry formulations.
INITIAL SCREENING AT 227-239° F.

[4] = Oxygen scavenging in heated copper coil apparatus (FIG. 1); conditions: 135° F.; pH 9.0; initial O2 7.7 ppm; corresponding scavenger:oxygen levels
Description: Another series of tests comparing hydrazine and carbohydrazide were carried out with the results presented in graphic form in FIG. 1. These tests were carried out at a temperature of 135° F. and a pH of 9.0 to prevent hydrolysis of the carbohydrazide.
The apparatus used including a reciprocating pump drawing water from a water reservoir and moving it through a heated copper coil at a rate of about 37 ml/minute. The coil was mounted in a cooling column and dissolved oxygen was measured at its outlet. The initial oxygen reading taken at this point for these tests was 7.7 ppm.
After the initial oxygen reading was taken, the scavenger being tested was injected into the feed line before the reciprocating pump.

[5] = Carbohydrazide vs. hydrazine in oxygen removal, once-through apparatus (Table III); conditions: for % O2 Removal / Final O2: initial O2 7.7 ppm, 227-239° F., pH about 10.5
Description: A once-through experimental apparatus for simulating boiler water transport was utilized in this example. Water temperature in this example was maintained at about 227°-239° F. and pH at about 10.5.

[6] = Carbohydrazide low temperature hydrolysis (Table V); assay type: physicochemical; parameters: Hydrazine By Hydrolysis: unit not given here; conditions: for Hydrazine By Hydrolysis / Percent Hydrolysis / ppm Hydrazine: 1,000 ppm
Description: Low temperature hydrolysis studies of carbohydrazide were carried out using reagent grade carbohydrazide containing approximately 2.7±0.1% hydrazine as an impurity. A 1,000 ppm carbohydrazide solution and a 100 ppm hydrazine solution were prepared with deaerated, deionized water. Half of the carbohydrazide solution was adjusted to pH 10.2 with sodium hydroxide and the other half was left at its original pH of 6.9. The solutions were poured into Nessler tubes to overflowing and sealed with stoppers fitted with hypodermic needles to allow pressure release with minimum air contact. Four samples of both of the carbohydrazide solutions and two samples of the hydrazine control were stored at varying temperatures for varying periods of time, all as reported in Table V below.

[7] = 282 °F., residence time 14.5 min
[8] = 343 °F., residence time 14.5 min
[9] = 400 °F., residence time 14.5 min
[10] = 400 °F., residence time 15.0 min
[11] = pH 6.9, Room Temp. (77° F.), 2 days
[12] = pH 6.9, Room Temp. (77° F.), 4 days
[13] = pH 6.9, Room Temp. (77° F.), 6 days
[14] = pH 10.2, Room Temp. (77° F.), 2 days
[15] = pH 10.2, Room Temp. (77° F.), 4 days
[16] = pH 10.2, Room Temp. (77° F.), 6 days

## NNC(=O)NN [Carbohydrazide, N, N' diaminourea]
[1]; 220° F.
  Hydrolysis at 220° F.: minimal
[1]; 282° F.
  Hydrolysis at 282° F.: minimal
[1]; [7]
  Final Hydrazine Level: 7 ppm
  Percent Hydrolysis: 7.0%
[1]; 340° F. through 400° F.
  Hydrolysis at 340° F. through 400° F.: still not complete
[1]; [8]
  Final Hydrazine Level: 45 ppm
  Percent Hydrolysis: 60.5%
[1]; [9]
  Final Hydrazine Level: 59 ppm
  Percent Hydrolysis: 80.2%
[1]; [10]
  Final Hydrazine Level: 61 ppm
  Percent Hydrolysis: 83.0%
[1]; about 220° F.
  Hydrazine found: less than 7%
[1]; residence time 14.5 min
  Percent Hydrolysis: 0%
[1]; temperature 21 °F. (so in the source), residence time 14.5 min
  Final Hydrazine Level: 2 ppm
[2]; dosage 1 ppm, 600 p.s.i., 48 hour test
  Tube Rank (by appearance of metal surface): 1
[2]; under the test conditions, Table IV
  Metal passivation effectiveness: the most effective metal passivator
[3]
  Scavenger ranking of the remaining two compounds: the best scavenger
[3]; 227-239° F., Table II
  Oxygen scavenging activity relative to hydrazine: activity comparable to hydrazine
[3]; initial O2 40 ppb, 227-239° F.
  % O2 Removal: 87.5%
  Final O2: 5 ppb
[4]
  Oxygen scavenging relative to hydrazine: superior to the hydrazine
[5]; ppm scavenger/ppm O2 0.05/1
  % O2 Removal: 14.3%
  Final O2: 6.60 ppm
[5]; ppm scavenger/ppm O2 0.5/1
  % O2 Removal: 57.4%
  Final O2: 3.28 ppm
[5]; ppm scavenger/ppm O2 5.0/1
  % O2 Removal: 98.7%
  Final O2: 0.10 ppm
[5]; vs hydrazine, Table III
  Amount needed for oxygen removal achieved with a given concentration of hydrazine: half as much
[6]; 120° F.
  Hydrolysis at 120° F.: no hydrolysis occured
[6]; 180° F.
  Hydrolysis above the original free hydrazine level: 3%
[6]; pH 6.9, 120° F., 2 days
  Hydrazine By Hydrolysis: 0
  Percent Hydrolysis: 2.7%
  ppm Hydrazine: 18.9 ppm
[6]; pH 6.9, 120° F., 4 days
  Hydrazine By Hydrolysis: 0
  Percent Hydrolysis: 2.6%
  ppm Hydrazine: 18.8 ppm
[6]; pH 6.9, 120° F., 6 days
  Hydrazine By Hydrolysis: 0
  Percent Hydrolysis: 2.6%
  ppm Hydrazine: 18.3 ppm
[6]; pH 6.9, 180° F., 2 days
  Hydrazine By Hydrolysis: 1.3
  Percent Hydrolysis: 4.0%
  ppm Hydrazine: 28.4 ppm
[6]; pH 6.9, 180° F., 4 days
  Hydrazine By Hydrolysis: 2.3
  Percent Hydrolysis: 5.0%
  ppm Hydrazine: 35.4 ppm
[6]; pH 6.9, 180° F., 6 days
  Hydrazine By Hydrolysis: 3.0
  Percent Hydrolysis: 5.7%
  ppm Hydrazine: 40.2 ppm
[6]; [11]
  Hydrazine By Hydrolysis: 0
  Percent Hydrolysis: 2.8%
  ppm Hydrazine: 19.7 ppm
[6]; [12]
  Hydrazine By Hydrolysis: 0
  Percent Hydrolysis: 2.7%
  ppm Hydrazine: 19.1 ppm
[6]; [13]
  Hydrazine By Hydrolysis: 0
  Percent Hydrolysis: 2.6%
  ppm Hydrazine: 18,7 ppm
[6]; pH 6.9, time 0
  Hydrazine By Hydrolysis: 0
  Percent Hydrolysis: 2.7%
  ppm Hydrazine: 19.0 ppm
[6]; pH 10.2, 120° F., 2 days
  Hydrazine By Hydrolysis: 0
  Percent Hydrolysis: 2.8%
  ppm Hydrazine: 20.0 ppm
[6]; pH 10.2, 120° F., 4 days
  Hydrazine By Hydrolysis: 0
  Percent Hydrolysis: 2.8%
  ppm Hydrazine: 19.8 ppm
[6]; pH 10.2, 120° F., 6 days
  Hydrazine By Hydrolysis: 0
  Percent Hydrolysis: 2.7%
  ppm Hydrazine: 19.3 ppm
[6]; pH 10.2, 180° F., 2 days
  Hydrazine By Hydrolysis: 1.4
  Percent Hydrolysis: 4.1%
  ppm Hydrazine: 29.0 ppm
[6]; pH 10.2, 180° F., 4 days
  Hydrazine By Hydrolysis: 2.1
  Percent Hydrolysis: 4.8%
  ppm Hydrazine: 34.2 ppm
[6]; pH 10.2, 180° F., 6 days
  Hydrazine By Hydrolysis: 2.7
  Percent Hydrolysis: 5.4%
  ppm Hydrazine: 38.6 ppm
[6]; [14]
  Hydrazine By Hydrolysis: 0
  Percent Hydrolysis: 2.8%
  ppm Hydrazine: 20.2 ppm
[6]; [15]
  Hydrazine By Hydrolysis: 0.1
  Percent Hydrolysis: 2.9%
  ppm Hydrazine: 20.5 ppm
[6]; [16]
  Hydrazine By Hydrolysis: 0
  Percent Hydrolysis: 2.8%
  ppm Hydrazine: 20.1 ppm
[6]; pH 10.2, time 0
  Hydrazine By Hydrolysis: 0
  Percent Hydrolysis: 2.7%
  ppm Hydrazine: 19.1 ppm
[6]; pH range of 7-10
  pH dependence of hydrolysis values: did not vary significantly
[6]; room temperature
  Hydrolysis at room temperature: no hydrolysis occured
